Key:
Type in all cases: biochemical
CDK1/Cyclin B1 = CDK1/Cyclin B1 (Homo sapiens, UniProt P06493); assay: CDK1/Cyclin B1 kinase assay (Nanosyn, Caliper microfluidic); details: 12-point dose-response, ATP at Km (40 μM), 3 hr
Procedure: (§1) Selected compounds disclosed herein were tested in kinase assays by Nanosyn (Santa Clara, Calif.) to determine their inhibitory effect on selected CDKs. The assays were performed using microfluidic kinase detection technology (Caliper Assay Platform). The compounds were tested in 12-point dose-response format in singlicate at Kmfor ATP. Phosphoacceptor substrate peptide concentration used was 1 μM for all assays and Staurosporine was used as the reference compound for all assays. Specifics of each assay are as described below: CDK1/Cyclin B1: Enzyme concentration: 0.08 nM; ATP concentration: 40 μM; Incubation time: 3 hr.

CDK2/Cyclin A = CDK2/Cyclin A (Homo sapiens, UniProt P24941); assay: CDK2/Cyclin A kinase assay (Nanosyn, Caliper microfluidic); details: 12-point dose-response, ATP at Km (50 μM), 3 hr
Procedure: as §1, with “CDK2/Cyclin A:” for “CDK1/Cyclin B1:”, “0.1” for “0.08”, “50” for “40”

CDK2/Cyclin E = CDK2/Cyclin E (Homo sapiens, UniProt P24941); assay: CDK2/Cyclin E kinase assay (Nanosyn, Caliper microfluidic); details: 12-point dose-response, ATP at Km (100 μM), 3 hr
Procedure: as §1, with “CDK2/Cyclin E:” for “CDK1/Cyclin B1:”, “0.15” for “0.08”, “100” for “40”

CDK3/Cyclin E = CDK3/Cyclin E (Homo sapiens, UniProt Q00526); assay: CDK3/Cyclin E kinase assay (Nanosyn, Caliper microfluidic); details: 12-point dose-response, ATP at Km (400 μM), 3 hr
Procedure: as §1, with “CDK3/Cyclin E:” for “CDK1/Cyclin B1:”, “1” for “0.08”, “400” for “40”

CDK4/Cyclin D1 = CDK4/Cyclin D1 (Homo sapiens, UniProt P11802); assay: CDK4/Cyclin D1 kinase assay (Nanosyn, Caliper microfluidic); details: 12-point dose-response, ATP at Km (200 μM), 3 hr; Table 4
CDK4/Cyclin D1, sequence (P11802 whole entry): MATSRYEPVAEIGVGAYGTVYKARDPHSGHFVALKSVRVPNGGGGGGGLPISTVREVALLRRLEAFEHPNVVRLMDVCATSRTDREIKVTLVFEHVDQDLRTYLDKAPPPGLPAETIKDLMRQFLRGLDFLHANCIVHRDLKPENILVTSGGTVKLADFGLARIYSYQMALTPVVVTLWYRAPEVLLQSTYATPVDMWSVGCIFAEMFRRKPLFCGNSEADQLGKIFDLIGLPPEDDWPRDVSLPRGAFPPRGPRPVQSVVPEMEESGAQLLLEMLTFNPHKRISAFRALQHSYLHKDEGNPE
CDK4/Cyclin D1, sequence (P24385 whole entry partner): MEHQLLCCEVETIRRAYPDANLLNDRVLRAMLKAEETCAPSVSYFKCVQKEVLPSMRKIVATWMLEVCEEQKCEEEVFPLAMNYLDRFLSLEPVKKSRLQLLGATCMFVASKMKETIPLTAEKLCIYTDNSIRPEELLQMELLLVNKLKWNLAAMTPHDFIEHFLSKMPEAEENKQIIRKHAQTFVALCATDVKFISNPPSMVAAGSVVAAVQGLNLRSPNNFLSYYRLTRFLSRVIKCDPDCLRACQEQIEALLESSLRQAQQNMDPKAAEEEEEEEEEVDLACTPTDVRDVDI
In short: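 Caliper microfluidic mobility-shift read-out, 12-point dose-response in singlicate. 1 nM enzyme, 200 μM ATP (Km), 1 μM peptide substrate, 3 hr incubation; staurosporine as reference.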

CDK5/p35 = CDK5/p35 (Homo sapiens, UniProt Q00535); assay: CDK5/p35 kinase assay (Nanosyn, Caliper microfluidic); details: 12-point dose-response, ATP at Km (20 μM), 3 hr
CDK5/p35, sequence (Q00535 whole entry): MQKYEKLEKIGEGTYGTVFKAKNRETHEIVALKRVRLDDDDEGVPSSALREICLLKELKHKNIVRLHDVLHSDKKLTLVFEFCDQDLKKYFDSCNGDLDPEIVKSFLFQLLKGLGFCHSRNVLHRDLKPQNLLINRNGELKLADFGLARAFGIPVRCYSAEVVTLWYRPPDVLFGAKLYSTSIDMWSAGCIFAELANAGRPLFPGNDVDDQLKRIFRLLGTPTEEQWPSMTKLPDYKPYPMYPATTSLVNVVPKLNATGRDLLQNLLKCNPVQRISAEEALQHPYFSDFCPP
CDK5/p35, sequence (Q15078 whole entry partner): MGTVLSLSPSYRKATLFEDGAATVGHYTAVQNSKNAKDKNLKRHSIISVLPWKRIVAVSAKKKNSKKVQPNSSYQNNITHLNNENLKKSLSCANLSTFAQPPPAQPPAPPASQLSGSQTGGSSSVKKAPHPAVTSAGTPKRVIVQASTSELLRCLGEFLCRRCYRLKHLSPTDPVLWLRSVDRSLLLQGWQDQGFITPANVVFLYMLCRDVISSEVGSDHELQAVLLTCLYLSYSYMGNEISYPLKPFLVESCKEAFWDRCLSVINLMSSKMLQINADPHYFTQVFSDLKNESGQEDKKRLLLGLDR
Procedure: as §1, with “CDK5/p35:” for “CDK1/Cyclin B1:”, “0.05” for “0.08”, “20” for “40”

CDK5/p25 = CDK5/p25 (Homo sapiens, UniProt Q00535); assay: CDK5/p25 kinase assay (Nanosyn, Caliper microfluidic); details: 12-point dose-response, ATP at Km (20 μM), 3 hr
Procedure: as §1, with “CDK5/p25:” for “CDK1/Cyclin B1:”, “0.1” for “0.08”, “20” for “40”

CDK6/Cyclin D3 = CDK6/Cyclin D3 (Homo sapiens, UniProt Q00534); assay: CDK6/Cyclin D3 kinase assay (Nanosyn, Caliper microfluidic); details: 12-point dose-response, ATP at Km (300 μM), 3 hr
CDK6/Cyclin D3, sequence (Q00534 whole entry): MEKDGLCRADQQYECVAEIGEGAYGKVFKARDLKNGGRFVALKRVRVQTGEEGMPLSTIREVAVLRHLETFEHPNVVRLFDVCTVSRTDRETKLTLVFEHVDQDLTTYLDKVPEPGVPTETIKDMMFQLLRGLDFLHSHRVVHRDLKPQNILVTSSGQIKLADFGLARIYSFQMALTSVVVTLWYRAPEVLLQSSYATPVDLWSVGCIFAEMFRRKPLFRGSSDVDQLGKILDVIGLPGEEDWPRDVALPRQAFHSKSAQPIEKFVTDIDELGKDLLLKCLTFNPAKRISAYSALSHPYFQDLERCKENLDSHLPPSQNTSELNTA
CDK6/Cyclin D3, sequence (P30281 whole entry partner): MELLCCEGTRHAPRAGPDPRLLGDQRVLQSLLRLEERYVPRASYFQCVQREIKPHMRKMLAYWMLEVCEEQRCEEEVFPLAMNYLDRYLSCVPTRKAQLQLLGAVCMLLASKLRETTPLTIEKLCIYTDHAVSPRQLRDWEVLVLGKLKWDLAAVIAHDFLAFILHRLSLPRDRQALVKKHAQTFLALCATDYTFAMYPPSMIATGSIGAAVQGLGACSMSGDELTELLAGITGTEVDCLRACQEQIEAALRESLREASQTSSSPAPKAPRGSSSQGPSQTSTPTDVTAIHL
Procedure: as §1, with “CDK6/Cyclin D3:” for “CDK1/Cyclin B1:”, “2” for “0.08”, “300” for “40”

CDK7/Cyclin H = CDK7/Cyclin H (Homo sapiens, UniProt P50613); assay: CDK7/Cyclin H kinase assay (Nanosyn, Caliper microfluidic); details: 12-point dose-response, ATP at Km (50 μM), 17 hr
CDK7/Cyclin H, sequence (P50613 whole entry): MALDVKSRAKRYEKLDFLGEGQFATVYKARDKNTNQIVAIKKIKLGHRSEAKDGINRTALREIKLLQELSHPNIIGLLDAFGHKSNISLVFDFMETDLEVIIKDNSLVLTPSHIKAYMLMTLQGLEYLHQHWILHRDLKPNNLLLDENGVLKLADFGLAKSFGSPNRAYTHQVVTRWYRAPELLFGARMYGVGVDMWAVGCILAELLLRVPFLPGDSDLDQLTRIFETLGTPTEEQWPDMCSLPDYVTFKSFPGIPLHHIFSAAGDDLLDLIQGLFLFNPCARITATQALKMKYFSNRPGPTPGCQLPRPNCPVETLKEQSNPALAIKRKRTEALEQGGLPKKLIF
CDK7/Cyclin H, sequence (P51946 whole entry partner): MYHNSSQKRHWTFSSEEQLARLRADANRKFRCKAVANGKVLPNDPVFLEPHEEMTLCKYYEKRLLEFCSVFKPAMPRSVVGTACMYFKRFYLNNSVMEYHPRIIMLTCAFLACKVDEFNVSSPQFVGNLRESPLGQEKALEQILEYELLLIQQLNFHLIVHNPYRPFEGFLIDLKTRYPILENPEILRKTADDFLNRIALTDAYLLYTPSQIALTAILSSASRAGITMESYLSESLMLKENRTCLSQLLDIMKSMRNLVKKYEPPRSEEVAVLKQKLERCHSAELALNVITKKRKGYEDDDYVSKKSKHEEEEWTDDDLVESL
CDK7/Cyclin H, sequence (P51948 whole entry partner): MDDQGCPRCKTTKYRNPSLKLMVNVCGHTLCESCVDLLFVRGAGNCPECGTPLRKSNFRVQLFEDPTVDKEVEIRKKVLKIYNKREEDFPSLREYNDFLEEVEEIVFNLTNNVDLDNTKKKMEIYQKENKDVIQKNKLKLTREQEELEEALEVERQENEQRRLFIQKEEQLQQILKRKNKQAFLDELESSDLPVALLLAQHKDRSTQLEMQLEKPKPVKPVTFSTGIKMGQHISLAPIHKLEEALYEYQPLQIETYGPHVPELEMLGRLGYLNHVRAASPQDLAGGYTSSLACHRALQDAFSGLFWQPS
Procedure: as §1, with “CDK7/Cyclin H:” for “CDK1/Cyclin B1:”, “10” for “0.08”, “50” for “40”, “17” for “3”

CDK9/Cyclin T = CDK9/Cyclin T (Homo sapiens, UniProt P50750); assay: CDK9/Cyclin T kinase assay (Nanosyn, Caliper microfluidic); details: 12-point dose-response, ATP at Km (10 μM), 17 hr; Table 5
CDK9/Cyclin T, sequence (P50750 whole entry): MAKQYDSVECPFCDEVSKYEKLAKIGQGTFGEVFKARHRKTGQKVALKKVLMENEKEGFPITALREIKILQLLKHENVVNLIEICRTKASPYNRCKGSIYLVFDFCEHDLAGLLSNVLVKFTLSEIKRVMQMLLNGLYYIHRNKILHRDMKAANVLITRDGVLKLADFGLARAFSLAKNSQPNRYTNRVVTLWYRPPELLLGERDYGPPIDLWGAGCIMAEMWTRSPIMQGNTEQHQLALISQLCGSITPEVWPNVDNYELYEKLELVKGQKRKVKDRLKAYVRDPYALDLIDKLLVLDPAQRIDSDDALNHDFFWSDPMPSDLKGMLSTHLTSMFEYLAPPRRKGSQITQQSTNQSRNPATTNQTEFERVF
CDK9/Cyclin T, sequence (O60563 whole entry partner): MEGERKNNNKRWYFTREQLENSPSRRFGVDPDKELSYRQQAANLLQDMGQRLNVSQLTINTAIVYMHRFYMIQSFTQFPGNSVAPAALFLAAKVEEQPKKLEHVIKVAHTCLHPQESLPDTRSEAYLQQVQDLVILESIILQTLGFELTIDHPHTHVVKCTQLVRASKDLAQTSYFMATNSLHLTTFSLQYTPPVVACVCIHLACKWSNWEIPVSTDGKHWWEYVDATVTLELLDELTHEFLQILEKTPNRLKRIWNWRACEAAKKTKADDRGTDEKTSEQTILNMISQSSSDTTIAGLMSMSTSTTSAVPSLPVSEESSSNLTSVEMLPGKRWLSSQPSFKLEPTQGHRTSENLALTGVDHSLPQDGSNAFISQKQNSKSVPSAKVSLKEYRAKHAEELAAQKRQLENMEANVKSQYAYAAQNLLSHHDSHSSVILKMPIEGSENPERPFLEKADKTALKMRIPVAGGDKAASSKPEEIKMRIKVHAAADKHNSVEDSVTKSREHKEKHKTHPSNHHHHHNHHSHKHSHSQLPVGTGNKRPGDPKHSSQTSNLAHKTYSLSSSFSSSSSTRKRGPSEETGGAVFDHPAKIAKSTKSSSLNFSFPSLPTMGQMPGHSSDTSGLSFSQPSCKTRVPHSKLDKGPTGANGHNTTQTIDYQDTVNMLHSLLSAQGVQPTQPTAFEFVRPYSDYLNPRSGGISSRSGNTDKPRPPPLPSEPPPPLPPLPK
In short: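 Caliper microfluidic mobility-shift read-out, 12-point dose-response in singlicate at ATP Km with 1 μM peptide substrate; staurosporine reference.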

CDK1/Cyclin B1, sequence (P06493 whole entry): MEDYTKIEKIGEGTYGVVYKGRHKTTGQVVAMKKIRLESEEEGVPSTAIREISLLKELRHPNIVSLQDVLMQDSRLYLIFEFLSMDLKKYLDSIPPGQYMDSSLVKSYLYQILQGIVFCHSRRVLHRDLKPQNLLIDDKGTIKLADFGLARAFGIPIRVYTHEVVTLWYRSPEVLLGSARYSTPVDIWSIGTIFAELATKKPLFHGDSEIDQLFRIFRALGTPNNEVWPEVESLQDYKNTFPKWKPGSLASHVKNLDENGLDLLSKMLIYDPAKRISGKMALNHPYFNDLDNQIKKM
CDK1/Cyclin B1, sequence (P14635 whole entry partner): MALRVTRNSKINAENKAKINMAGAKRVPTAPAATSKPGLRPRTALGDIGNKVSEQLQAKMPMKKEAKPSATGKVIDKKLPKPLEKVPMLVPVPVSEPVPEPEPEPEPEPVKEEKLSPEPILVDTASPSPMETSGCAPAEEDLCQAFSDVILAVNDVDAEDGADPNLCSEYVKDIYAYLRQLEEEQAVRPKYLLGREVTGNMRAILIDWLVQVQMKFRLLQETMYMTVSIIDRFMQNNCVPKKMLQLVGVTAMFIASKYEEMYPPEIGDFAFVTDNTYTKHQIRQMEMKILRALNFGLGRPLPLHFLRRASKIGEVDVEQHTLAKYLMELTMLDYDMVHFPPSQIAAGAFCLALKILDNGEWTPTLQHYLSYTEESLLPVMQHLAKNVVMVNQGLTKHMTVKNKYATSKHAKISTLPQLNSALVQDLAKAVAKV

Structure (SMILES) | IC50 (CDK1/Cyclin B1) | IC50 (CDK2/Cyclin A) | IC50 (CDK2/Cyclin E) | IC50 (CDK3/Cyclin E) | IC50 (CDK4/Cyclin D1) | IC50 (CDK5/p35) | IC50 (CDK5/p25) | IC50 (CDK6/Cyclin D3) | IC50 (CDK7/Cyclin H) | IC50 (CDK9/Cyclin T)
O=C1NCC2(CCCCC2)n2c1cc1cnc(NC(=O)[C@H]3CNCCO3)nc12 [Compound 35, (R)-N-(6′-oxo-7′,8′-dihydro-6′H-spiro[cyclohexane-1,9′-pyrazino[1′,2′:1,5]pyrrolo[2,3-d]pyrimidin]-2′-yl)morpholine-2-carboxamide] | 31000 nM | 10000 nM | 26000 nM | 54000 nM | 27000 nM | 40000 nM | 43000 nM | > 100000 nM | 61000 nM | 88 nM
O=C1NCC2(CCCCC2)n2c1cc1cnc(NC(=O)[C@H]3CNCCN3)nc12 [Compound 36, (R)-N-(6′-oxo-7′,8′-dihydro-6′H-spiro[cyclohexane-1,9′-pyrazino[1′,2′:1,5]pyrrolo[2,3-d]pyrimidin]-2′-yl)piperazine-2-carboxamide] | > 100000 nM | 88000 nM | > 100000 nM | > 100000 nM | 9400 nM | > 100000 nM | > 100000 nM | 82000 nM | > 100000 nM | 240 nM
O=C(C[C@H]1CCCN1)Nc1ncc2cc3n(c2n1)C1(CCCCC1)CNC3=O [Compound 37, (R)-N-(6′-oxo-7′,8′-dihydro-6′H-spiro[cyclohexane-1,9′-pyrazino[1′,2′:1,5]pyrrolo[2,3-d]pyrimidin]-2′-yl)-2-(pyrrolidin-2-yl)acetamide] | 27000 nM | 16000 nM | 29000 nM | 38000 nM | 6300 nM | 28000 nM | 31000 nM | 14000 nM | 17000 nM | 120 nM
CN1CCN([C@H]2CC[C@@H](Nc3ncc4cc5n(c4n3)C3(CCCCC3)CNC5=S)CC2)CC1 [Compound 39, 2′-(((1s,4s)-4-(4-methylpiperazin-1-yl)cyclohexyl)amino)-7′,8′-dihydro-6′H-spiro[cyclohexane-1,9′-pyrazino[1′,2′:1,5]pyrrolo[2,3-d]pyrimidine]-6′-thione] | 1200 nM | 140 nM | 300 nM | 420 nM | 9.5 nM | 1500 nM | 1600 nM | 48 nM | 500 nM | 13 nM
S=C1NCC2(CCCCC2)n2c1cc1cnc(N[C@H]3CCCNC3)nc12 [Compound 40, (S)-2′-(piperidin-3-ylamino)-7′,8′-dihydro-6′H-spiro[cyclohexane-1,9′-pyrazino[1′,2′:1,5]pyrrolo[2,3-d]pyrimidine]-6′-thione] | 61 nM | 100 nM | 110 nM | 17 nM | 23 nM | 51 nM | 40 nM | 79 nM | 10 nM | 3.4 nM
S=C1NCC2(CCCCC2)n2c1cc1cnc(N[C@@H]3CCCNC3)nc12 [Compound 41, (R)-2′-(piperidin-3-ylamino)-7′,8′-dihydro-6′H-spiro[cyclohexane-1,9′-pyrazino[1′,2′:1,5]pyrrolo[2,3-d]pyrimidine]-6′-thione] | 330 nM | 150 nM | 310 nM | 210 nM | 6.7 nM | 1100 nM | 970 nM | 23 nM | 85 nM | 4.3 nM
NS(=O)(=O)c1cccc(Nc2ncc3cc4n(c3n2)C2(CCCCC2)CNC4=O)c1 [Compound 42, 3-((6′-oxo-7′,8′-dihydro-6′H-spiro[cyclohexane-1,9′-pyrazino[1′,2′:1,5]pyrrolo[2,3-d]pyrimidin]-2′-yl)amino)benzenesulfonamide] | 8.8 nM | 4.3 nM | 7.8 nM | 12 nM | 8.9 nM | 7.5 nM | 5.5 nM | 22 nM | 240 nM | 1.2 nM
NS(=O)(=O)Cc1cccc(Nc2ncc3cc4n(c3n2)C2(CCCCC2)CNC4=O)c1 [Compound 43, (3-((6′-oxo-7′,8′-dihydro-6′H-spiro[cyclohexane-1,9′-pyrazino[1′,2′:1,5]pyrrolo[2,3-d]pyrimidin]-2′-yl)amino)phenyl)methanesulfonamide] | > 100000 nM | 99000 nM | > 100000 nM | > 100000 nM | 47000 nM | 94000 nM | 99000 nM | > 100000 nM | > 100000 nM | 10000 nM
O=C1NCC2(CCCCC2)n2c1cc1cnc(N[C@H]3CC[C@H](N4CCOCC4)CC3)nc12 [Compound 44, 2′-(((1,4-trans)-4-morpholinocyclohexyl)amino)-7′,8′-dihydro-6′H-spiro[cyclohexane-1,9′-pyrazino[1′,2′:1,5]pyrrolo[2,3-d]pyrimidin]-6′-one] | 490 nM | 170 nM | 290 nM | 470 nM | 24 nM | 320 nM | 270 nM | 100 nM | 270 nM | 6.2 nM
CN(C)[C@H]1CC[C@H](Nc2ncc3cc4n(c3n2)C2(CCCCC2)CNC4=O)CC1 [Compound 45, 2′-(((1,4-trans)-4-(dimethylamino)cyclohexyl)amino)-7′,8′-dihydro-6′H-spiro[cyclohexane-1,9′-pyrazino[1′,2′:1,5]pyrrolo[2,3-d]pyrimidin]-6′-one] | 270 nM | 140 nM | 260 nM | 240 nM | 11 nM | 310 nM | 360 nM | 47 nM | 86 nM | 3.3 nM

From patent US20200331925A1, “HETEROCYCLIC COMPOUNDS FOR THE TREATMENT OF ABNORMAL CELLULAR PROLIFERATION” (G1 Therapeutics, Inc., priority 2018, published 2020)
